Positions of bridges follow the written chain, without caps; N, C: chain ends. No end group written: not given here.
Test system: Sprague Dawley rat aortic rings
Assay: Ex vivo rat aortic ring assay (endothelial cell outgrowth)
Assay type: cell-based
Protocol: Figure 3. NC1(XIX) and F4 inhibit endothelial cell ex vivo migration. Rat aortic rings were embedded in Matrigel in 24 well-plate and then incubated with or without 40 μM NC1(XIX) or F4 for 14 days. Micro-vessel outgrowth was observed under an inverted microscope after 14 days and photographed (a). Cell outgrowth from the tissue explant was measured using a home-made macro based on ImageJ analysis software. The results are presented as mean ± SD (n = 5 replicates) (b). The experiment was repeated twice (N = 2)
The ex vivo rat aortic ring assay was adapted from Baker et al.. Thoracic aorta was dissected from Sprague Dawley rat and stored in Opti-MEM (ThermoFisher, ref 31985062) supplemented with 1% penicillin/streptomycin in a Petri dish. Aorta was then cut into 0.5 mm rings that were incubated in Opti-MEM overnight at +37°C in a Petri dish. Matrigel (7 mg/mL) was loaded in 24-well plate and allowed to polymerize at +37°C for 30 min. The rings were carefully transferred from the Petri dish onto the Matrigel coated wells and were completely embedded by addition of Matrigel. The plate was incubated at +37°C for 30 min. Opti-MEM supplemented with 30 ng/mL VEGF with or without 40 μM NC1(XIX) or F4 was added. Plate was incubated at +37°C in a humid atmosphere containing 5% CO2 for 14 days. The supplemented culture medium was changed every 3 days. Rings were imaged under an inverted light microscope at 14 days. Quantitative evaluation of the angiogenic sprouting was determined by measuring the number of endothelial cell outgrowth from the primary tissue explant using a homemade macro based on ImageJ analysis software. The first step consisted in the semi-automatic selection of aortic ring shape at day 0 by manual threshold allowing the design of a top hat filter to obtain a relevant mask of this structure. The mask was then substracted from day 14 image to keep only outgrowing cells. The second step consisted in a manual threshold and the use of ‘Analyze Particules’ tool involving size criteria. The total cell number of cell outgrowing from the ring was determined.

Q: Which “cell outgrowth, F4 compared with NC1(XIX)” value (40 μM, 14 days, Opti-MEM with 30 ng/mL VEGF) does the source give for “CNPEDCLYPVSHAHQR (disulfide 1-6 (inferred)) [F4, collagen XIX-derived peptide, released by plasmin from type XIX collagen]” here?
A: even stronger than NC1(XIX) effect

Q: And the “change of cell outgrowth from aortic ring vs control” value (40 μM, 14 days, Opti-MEM with 30 ng/mL VEGF, Matrigel, mean ± SD (n = 5), N = 2, p < 0.01 NC1(XIX), p < 0.001 F4)?
A: −78%

Q: And the “anti-angiogenic effect on aortic endothelial sprouting, F4 compared with NC1(XIX) (discussion)” value (ex vivo)?
A: even greater than the whole NC1(XIX) domain

Q: And the “inhibition of endothelial sprouting” value (rat aortic ring assay (abstract))?
A: endothelial sprouting in a rat aortic ring assay

— paper PMC8312610, “F4, a collagen XIX-derived peptide, inhibits tumor angiogenesis through αvβ3 and α5β1 integrin interaction” (Cell Adhesion & Migration, 2021)
